{"source": "patent US20070053931A1", "about": "“Dietary supplements for treating hypertension” (ULTRA BIOTECH LIMITED, priority 2002, published 2007)", "test_system": "Wistar rats", "test": "Control of essential hypertension in Wistar rats (testosterone propionate-induced blood pressure elevation)", "type": "in vivo, rat", "method": "Unless otherwise specified, all compositions of interest were administered to the animals by intragastric feeding.\nTo test the ability of the activated yeast compositions to reduce blood pressure, thirty-two healthy Wistar rats of average weight of about 200±20 g (8-10 months old, half of them male and the other half female) were randomly divided into four equal groups, Groups A, B, C and D. Blood pressure of each rat was measured with a manometer for three consecutive days. After three days, each rat was subcutaneously injected with 4 mg of testosterone propionate in 0.4 ml of sesame oil per day for fourteen consecutive days.\nA composition of interest (2 ml/kg/day) was then administered to each rat for sixteen consecutive days, while their blood pressure level was monitored every four days. Rats in Groups A, B, C and D received distilled water, reserpine, the activated yeast composition and the control yeast composition, respectively."}
{"smiles": "COC(=O)[C@H]1[C@H]2C[C@@H]3c4[nH]c5cc(OC)ccc5c4CCN3C[C@H]2C[C@@H](OC(=O)c2cc(OC)c(OC)c(OC)c2)[C@@H]1OC", "note": "[reserpine]", "values": [{"measurement": "Blood Pressure After Administration of a Composition", "setting": "Wistar rats made hypertensive with 4 mg/day s.c. testosterone propionate for 14 days, composition 2 ml/kg/day intragastric for sixteen consecutive days", "value": "15.3 ± 0.89", "unit": "kPa"}, {"measurement": "Change in Blood Pressure (Value in Col. 3 − Value in Col. 2)", "setting": "after administration of composition vs after testosterone injection, 2 ml/kg/day intragastric, 16 days", "value": "1.4 ± 0.33", "unit": "kPa"}]}
